Laboratory results reported in patent publication US10858364B2, “Imidazopyrazine inhibitors of Bruton's tyrosine kinase” (Acerta Pharma B.V., priority 2016, dated 2020).

How the values were obtained:
[1] = target: BLK (Homo sapiens (Human), UniProt P51451); assay: BLK Z'-LYTE kinase assay; format: biochemical; details: 1 h pre-incubation, Km ATP
Protocol: (§1) BMX, TXK, EGFR, ERBB2, ERBB4, JAK3, BLK kinase activity was measured using the Z′-LYTE assay at Thermo Fisher. A 10-point dose response (final concentration in assay ranged from 10 μM to 0.5 nM in 3-fold dilution per dilution step) was generated with 1 h incubation of the test compound with the kinase prior to initiation of the kinase reaction by the addition of ATP. ATP concentration in the assay was Km ATP for the different kinases. IC50 values are determined by curve fitting of the experimental results at Thermo Fisher.

[2] = target: JAK3 (Homo sapiens (Human), UniProt P52333); assay: JAK3 Z'-LYTE kinase assay; format: biochemical; details: 1 h pre-incubation, Km ATP
Chain of JAK3 (P52333 whole entry): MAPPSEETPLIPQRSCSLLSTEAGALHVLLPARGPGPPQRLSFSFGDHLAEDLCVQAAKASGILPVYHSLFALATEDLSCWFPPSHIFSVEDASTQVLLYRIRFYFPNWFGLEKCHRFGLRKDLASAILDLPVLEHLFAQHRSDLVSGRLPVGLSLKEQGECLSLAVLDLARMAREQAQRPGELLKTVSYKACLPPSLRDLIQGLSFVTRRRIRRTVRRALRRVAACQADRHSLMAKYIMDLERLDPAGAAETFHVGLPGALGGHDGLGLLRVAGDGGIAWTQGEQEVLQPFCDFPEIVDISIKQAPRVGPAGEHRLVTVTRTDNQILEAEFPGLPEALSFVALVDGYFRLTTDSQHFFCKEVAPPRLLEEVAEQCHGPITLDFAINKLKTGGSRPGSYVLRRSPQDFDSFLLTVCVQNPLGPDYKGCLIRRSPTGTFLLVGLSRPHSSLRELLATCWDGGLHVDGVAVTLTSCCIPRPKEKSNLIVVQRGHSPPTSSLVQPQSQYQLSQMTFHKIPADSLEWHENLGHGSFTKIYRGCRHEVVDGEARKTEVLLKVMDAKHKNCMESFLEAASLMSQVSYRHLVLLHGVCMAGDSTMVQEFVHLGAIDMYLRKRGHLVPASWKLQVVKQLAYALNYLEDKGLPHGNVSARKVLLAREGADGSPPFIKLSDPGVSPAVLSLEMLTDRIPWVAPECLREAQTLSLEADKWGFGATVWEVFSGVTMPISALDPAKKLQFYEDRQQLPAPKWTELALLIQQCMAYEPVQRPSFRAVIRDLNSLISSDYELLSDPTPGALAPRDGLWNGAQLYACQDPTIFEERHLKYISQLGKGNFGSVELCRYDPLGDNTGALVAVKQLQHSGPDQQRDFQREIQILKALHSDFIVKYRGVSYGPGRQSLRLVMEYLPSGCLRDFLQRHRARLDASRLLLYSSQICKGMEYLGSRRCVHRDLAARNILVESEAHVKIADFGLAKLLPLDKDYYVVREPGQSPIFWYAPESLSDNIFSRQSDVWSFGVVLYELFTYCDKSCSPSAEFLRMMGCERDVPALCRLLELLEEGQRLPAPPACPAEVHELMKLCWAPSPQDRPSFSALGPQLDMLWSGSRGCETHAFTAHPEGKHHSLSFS
Protocol: as §1

[3] = target: BTK (Homo sapiens (Human), UniProt Q06187); assay: BTK target occupancy ELISA in Ramos B cells; format: cell-based; details: 2h incubation
Chain of BTK (Q06187 whole entry): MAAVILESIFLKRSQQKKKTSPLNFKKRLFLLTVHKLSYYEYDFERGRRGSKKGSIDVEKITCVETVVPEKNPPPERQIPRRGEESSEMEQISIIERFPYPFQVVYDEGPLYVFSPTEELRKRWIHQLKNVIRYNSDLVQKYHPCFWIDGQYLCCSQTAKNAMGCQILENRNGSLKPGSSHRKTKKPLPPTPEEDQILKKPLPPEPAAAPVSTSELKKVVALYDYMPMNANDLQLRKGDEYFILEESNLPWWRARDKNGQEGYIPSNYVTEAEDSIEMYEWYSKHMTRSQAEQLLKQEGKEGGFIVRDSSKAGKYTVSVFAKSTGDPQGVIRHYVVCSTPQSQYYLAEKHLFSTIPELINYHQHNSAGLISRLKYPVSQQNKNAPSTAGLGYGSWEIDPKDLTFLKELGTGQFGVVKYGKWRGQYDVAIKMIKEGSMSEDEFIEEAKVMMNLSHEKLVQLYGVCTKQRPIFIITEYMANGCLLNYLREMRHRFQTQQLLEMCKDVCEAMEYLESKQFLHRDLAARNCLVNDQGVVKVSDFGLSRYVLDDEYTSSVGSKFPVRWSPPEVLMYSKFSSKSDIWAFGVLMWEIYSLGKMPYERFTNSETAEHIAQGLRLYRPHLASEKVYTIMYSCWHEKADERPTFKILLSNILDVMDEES
Protocol: Ramos B cells (ATCC, cat no. CRL-1923) were plated in 24-wells culture plates at 2×10^6 cells per well in a total volume of 900 μL DMEMF12+10% FBS+2 mM L-Glutamine+Pen/Strep. Allow the cells to rest 1 h at 5-7% CO2 and 37° C. Serial dilutions log 10 from 10 mM to 316 nM of test compounds are made in 100% DMSO, followed by a 100-fold dilution into culture medium. For each well, 100 μL was then transferred to well plate containing 900 μL of Ramos B cells. Final compound concentration range in the assay varied from 10 μM to 0.316 nM, with a final DMSO concentration of 0.1% and incubated at 5-7% CO2 and 37° C. for 2h. Afterwards, cells are collected for the measurement of the BTK target occupancy using the BTK target occupancy ELISA as outlined below. The percent of drug-bound BTK in Ramos B cell samples was determined by an ELISA based method as follows: OptiPlate 96-well plates (Perkin Elmer) were coated with 125 ng/well anti-BTK Ab (BD Biosciences) and blocked with BSA (Sigma-Aldrich). […] One hundred L/well of SuperSignal ELISA Femto Substrate (ThermoFisher Scientific) was added and then chemiluminescence was measured after 1 minute (EnVision® plate reader; PerkinElmer). The percent of BTK occupancy for each sample was calculated relative to the vehicle control. […] Ramos cells were incubated with a dose range of M27 and BTK target occupancy was determined by ELISA.

[4] = test system: all available kinases (KINOMEscan); assay: KINOMEscan (DiscoveRx scanMAX) profiling, selectivity score; format: binding; details: single dose of 1 μM
Protocol: (§2) Kinase profiling was performed with M27 was done at DiscoveRx at a single dose of 1 μM on all available kinases (KINOMEscan). The overall kinase selectivity score is in Table 6. […] Kinases inhibited >65% at 1 μM for M27 were followed up with a dose response at DiscoveRx. The M27 had IC50 values <1 μM for almost the same set of kinases with exception of TXK, but with additional inhibition of BRK (PTK6).

[5] = target: BMX (Homo sapiens (Human), UniProt P51813); assay: DiscoveRx Kd dose response, BMX; format: binding
Chain of BMX (P51813 whole entry): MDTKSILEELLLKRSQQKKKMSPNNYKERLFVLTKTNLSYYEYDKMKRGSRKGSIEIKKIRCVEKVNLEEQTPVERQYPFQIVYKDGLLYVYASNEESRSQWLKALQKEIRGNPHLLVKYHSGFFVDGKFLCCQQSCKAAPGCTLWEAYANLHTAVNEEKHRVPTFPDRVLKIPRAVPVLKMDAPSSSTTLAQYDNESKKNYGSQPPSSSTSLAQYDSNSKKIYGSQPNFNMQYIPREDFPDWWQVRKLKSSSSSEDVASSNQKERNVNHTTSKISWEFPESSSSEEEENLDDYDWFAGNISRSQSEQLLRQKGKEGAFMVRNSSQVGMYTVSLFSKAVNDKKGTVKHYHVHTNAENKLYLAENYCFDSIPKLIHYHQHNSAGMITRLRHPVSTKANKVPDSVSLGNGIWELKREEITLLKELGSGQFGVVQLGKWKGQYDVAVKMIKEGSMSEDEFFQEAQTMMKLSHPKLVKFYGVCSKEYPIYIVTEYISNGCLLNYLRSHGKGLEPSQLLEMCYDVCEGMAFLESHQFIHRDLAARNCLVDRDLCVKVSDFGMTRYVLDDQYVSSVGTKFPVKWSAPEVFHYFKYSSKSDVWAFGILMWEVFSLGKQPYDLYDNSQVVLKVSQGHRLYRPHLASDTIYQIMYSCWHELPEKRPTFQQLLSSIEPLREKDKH
Protocol: as §2

[6] = target: ERBB4 (Homo sapiens (Human), UniProt Q15303); assay: DiscoveRx Kd dose response, ERBB4; format: binding
Chain of ERBB4 (Q15303 26-1308): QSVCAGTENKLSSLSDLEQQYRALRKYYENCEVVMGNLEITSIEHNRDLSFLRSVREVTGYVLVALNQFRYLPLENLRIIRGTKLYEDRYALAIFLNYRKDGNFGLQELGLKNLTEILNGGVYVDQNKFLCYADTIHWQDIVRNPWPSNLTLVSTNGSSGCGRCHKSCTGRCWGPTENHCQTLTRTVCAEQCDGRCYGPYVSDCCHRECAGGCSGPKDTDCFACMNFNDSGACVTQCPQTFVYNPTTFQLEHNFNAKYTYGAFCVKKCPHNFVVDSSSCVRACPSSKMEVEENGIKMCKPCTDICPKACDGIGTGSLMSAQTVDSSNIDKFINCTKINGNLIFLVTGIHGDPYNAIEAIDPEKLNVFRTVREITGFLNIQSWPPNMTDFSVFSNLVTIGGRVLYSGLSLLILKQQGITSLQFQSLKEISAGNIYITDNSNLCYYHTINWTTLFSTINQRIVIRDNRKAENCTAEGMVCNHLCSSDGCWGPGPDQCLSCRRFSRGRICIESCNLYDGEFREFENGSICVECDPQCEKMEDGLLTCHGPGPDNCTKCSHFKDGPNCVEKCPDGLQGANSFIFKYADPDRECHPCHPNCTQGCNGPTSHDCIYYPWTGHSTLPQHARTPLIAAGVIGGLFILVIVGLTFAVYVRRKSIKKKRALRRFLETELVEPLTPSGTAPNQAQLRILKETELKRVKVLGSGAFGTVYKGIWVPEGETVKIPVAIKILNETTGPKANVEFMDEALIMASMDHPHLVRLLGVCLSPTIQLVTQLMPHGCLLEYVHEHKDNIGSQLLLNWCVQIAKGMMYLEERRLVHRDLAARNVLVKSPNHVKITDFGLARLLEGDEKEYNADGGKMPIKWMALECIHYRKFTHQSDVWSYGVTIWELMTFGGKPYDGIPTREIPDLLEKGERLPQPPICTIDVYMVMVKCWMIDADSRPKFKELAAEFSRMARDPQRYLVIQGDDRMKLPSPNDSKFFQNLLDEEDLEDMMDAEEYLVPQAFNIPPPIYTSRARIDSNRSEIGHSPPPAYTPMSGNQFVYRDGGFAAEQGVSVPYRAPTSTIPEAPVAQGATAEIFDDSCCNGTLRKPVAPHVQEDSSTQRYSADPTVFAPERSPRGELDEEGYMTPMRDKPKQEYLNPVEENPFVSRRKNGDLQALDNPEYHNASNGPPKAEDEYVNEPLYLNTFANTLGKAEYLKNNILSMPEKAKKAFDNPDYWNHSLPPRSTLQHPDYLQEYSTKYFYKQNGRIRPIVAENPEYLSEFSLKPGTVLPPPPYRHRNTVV
Protocol: as §2

[7] = test system: CYP3A4/5; assay: CYP inhibition, CYP3A4/5; format: in vitro ADME
[8] = target: CYP2C9 (Homo sapiens (Human), UniProt P11712); assay: CYP inhibition, CYP2C9; format: in vitro ADME
Chain of CYP2C9 (P11712 whole entry): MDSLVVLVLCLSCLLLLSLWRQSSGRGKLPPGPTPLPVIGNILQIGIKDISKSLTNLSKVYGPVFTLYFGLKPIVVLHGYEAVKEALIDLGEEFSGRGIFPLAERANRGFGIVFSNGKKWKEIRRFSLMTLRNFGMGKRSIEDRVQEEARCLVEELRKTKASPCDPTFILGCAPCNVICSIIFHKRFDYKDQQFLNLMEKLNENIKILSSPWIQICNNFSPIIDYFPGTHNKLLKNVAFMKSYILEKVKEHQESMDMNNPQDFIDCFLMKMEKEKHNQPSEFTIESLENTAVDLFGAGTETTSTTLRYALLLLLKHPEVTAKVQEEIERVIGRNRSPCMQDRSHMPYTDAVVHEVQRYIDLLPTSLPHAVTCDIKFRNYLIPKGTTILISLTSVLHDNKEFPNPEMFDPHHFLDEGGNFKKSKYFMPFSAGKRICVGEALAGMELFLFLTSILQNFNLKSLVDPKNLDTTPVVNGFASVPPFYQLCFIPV

Chain of BLK (P51451 whole entry): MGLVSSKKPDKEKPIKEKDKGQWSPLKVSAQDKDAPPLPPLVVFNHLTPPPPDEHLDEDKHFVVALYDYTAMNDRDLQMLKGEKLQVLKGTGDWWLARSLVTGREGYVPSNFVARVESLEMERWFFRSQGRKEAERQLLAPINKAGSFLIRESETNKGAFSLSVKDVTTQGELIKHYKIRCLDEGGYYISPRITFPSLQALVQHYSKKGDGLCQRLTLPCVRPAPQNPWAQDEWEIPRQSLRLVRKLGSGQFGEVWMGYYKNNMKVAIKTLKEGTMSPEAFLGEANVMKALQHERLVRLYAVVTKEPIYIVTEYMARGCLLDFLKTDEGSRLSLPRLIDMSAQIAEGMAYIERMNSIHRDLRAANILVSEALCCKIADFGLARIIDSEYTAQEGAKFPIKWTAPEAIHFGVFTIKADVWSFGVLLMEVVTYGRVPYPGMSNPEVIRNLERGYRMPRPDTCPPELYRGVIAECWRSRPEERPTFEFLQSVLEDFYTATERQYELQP

IC50 [1]: 6170 ± 3350 nM | IC50 [2]: > 10000 nM | IC50 [3]: 39 nM | Kd [5]: 190 nM | Kd [6]: 970 nM | CYP3A4/5 inhibition [7]: does not inhibit | CYP2C9 inhibition [8]: weak inhibitor
SMILES: CC#CC(=O)NCCCC(=O)c1nc(-c2ccc(C(=O)Nc3ccccn3)cc2)c2c(N)nccn12 [Formula (I), 4-(8-amino-3-(4-(but-2-ynamido)butanoyl)imidazo[1,5-a]pyrazin-1-yl)-N-(pyridin-2-yl)benzamide]
Selectivity Score S(10) [4]: 0.005 | Selectivity Score S(35) [4]: 0.013
